Data taken from paper PMC6522510 (Nature Communications, 2019).
Like-named read-outs stand apart in the source and are kept apart here.

Columns and labels:
CHRF288-11 [1] = test: Secondary dose-response HTS, Cell Titer Glo; format: cell-based, human; conditions: Homo sapiens, HTS; secondary high-throughput screen; CHRF288-11; read-out: average effective concentration, CHRF288-11
CMS [2] = test: Secondary dose-response HTS, Cell Titer Glo; format: cell-based, human; conditions: Homo sapiens, HTS, read-out: average effective concentration, CMS
M07e [3] = test: Secondary dose-response HTS, Cell Titer Glo; format: cell-based, human; conditions: Homo sapiens, M-07e, secondary high-throughput screen, read-out: average effective concentration, M07e
ML2 = test: Secondary dose-response HTS, Cell Titer Glo; format: cell-based, human; conditions: Homo sapiens; secondary high-throughput screen; ML-2; read-out: average effective concentration, ML-2
U937 [4] = test: Secondary dose-response HTS, Cell Titer Glo; format: cell-based, human; conditions: Homo sapiens, U-937; secondary high-throughput screen; U937; read-out: average effective concentration, U937
MOLM-13 [5] = test: cells; design: species or system AML cell lines (8); Secondary HTS, 10-point dose-response in triplicate, Cell Titer Glo viability, four-parameter fit EC50; conditions: Homo sapiens, MOLM-13, 72 h, read-out: MOLM-13
MV4-11 [6] = test: cells; design: species or system AML cell lines (8); Secondary HTS, 10-point dose-response in triplicate, Cell Titer Glo viability, four-parameter fit EC50; conditions: Homo sapiens, MV4-11, 72 h, read-out: MV4-11
CMK [7] = test: cells; design: species or system AML cell lines (8); Secondary HTS, 10-point dose-response in triplicate, Cell Titer Glo viability, four-parameter fit EC50; conditions: Homo sapiens, CMK, 72 h, read-out: CMK
CMK [8] = test: Secondary dose-response HTS, Cell Titer Glo; format: cell-based, human; conditions: Homo sapiens, CMK, read-out: average effective concentration, CMK
CHRF288-11 [9] = test: cells; design: species or system AML cell lines (8); Secondary HTS, 10-point dose-response in triplicate, Cell Titer Glo viability, four-parameter fit EC50; conditions: 72 h, read-out: CHRF288-11
U937 [10] = test: cells; design: species or system AML cell lines (8); Secondary HTS, 10-point dose-response in triplicate, Cell Titer Glo viability, four-parameter fit EC50; conditions: Homo sapiens, U-937, 72 h, read-out: U937
ML-2 [11] = test: cells; design: species or system AML cell lines (8); Secondary HTS, 10-point dose-response in triplicate, Cell Titer Glo viability, four-parameter fit EC50; conditions: Homo sapiens, ML-2, 72 h, read-out: ML-2
CHRF288-11 [12] = test system: CHRF288-11; design: species or system AML cell lines (8); Primary HTS, single concentration about 10 uM, Cell Titer Glo viability; log10 luminescence, per cent inhibition relative to cycloheximide control; conditions: 72 h, relative to cycloheximide control, log10 luminescence; inhibitor
CMK [13] = test system: CMK; design: species or system AML cell lines (8); Primary HTS, single concentration about 10 uM, Cell Titer Glo viability; log10 luminescence, per cent inhibition relative to cycloheximide control; conditions: 72 h, relative to cycloheximide control, log10 luminescence; inhibitor
CMS [14] = test system: CMS; design: species or system AML cell lines (8); Primary HTS, single concentration about 10 uM, Cell Titer Glo viability; log10 luminescence, per cent inhibition relative to cycloheximide control; conditions: 72 h, relative to cycloheximide control, log10 luminescence; inhibitor
M07e [15] = test system: M07e; design: species or system AML cell lines (8); Primary HTS, single concentration about 10 uM, Cell Titer Glo viability; log10 luminescence, per cent inhibition relative to cycloheximide control; conditions: 72 h, relative to cycloheximide control, log10 luminescence; inhibitor
ML-2 [16] = test system: ML-2; design: species or system AML cell lines (8); Primary HTS, single concentration about 10 uM, Cell Titer Glo viability; log10 luminescence, per cent inhibition relative to cycloheximide control; conditions: 72 h, relative to cycloheximide control, log10 luminescence; inhibitor
MOLM-13 [17] = test system: MOLM-13; design: species or system AML cell lines (8); Primary HTS, single concentration about 10 uM, Cell Titer Glo viability; log10 luminescence, per cent inhibition relative to cycloheximide control; conditions: 72 h, relative to cycloheximide control, log10 luminescence; inhibitor
MV4-11 [18] = test system: MV4-11; design: species or system AML cell lines (8); Primary HTS, single concentration about 10 uM, Cell Titer Glo viability; log10 luminescence, per cent inhibition relative to cycloheximide control; conditions: 72 h, relative to cycloheximide control, log10 luminescence; inhibitor
U937 [19] = test system: U937; design: species or system AML cell lines (8); Primary HTS, single concentration about 10 uM, Cell Titer Glo viability; log10 luminescence, per cent inhibition relative to cycloheximide control; conditions: 72 h, relative to cycloheximide control, log10 luminescence; inhibitor
MOLM-13 [20] = test: Secondary dose-response HTS, Cell Titer Glo; format: cell-based, human; conditions: Homo sapiens; secondary high-throughput screen; MOLM-13; read-out: average effective concentration, MOLM-13
MV4-11 [21] = test: Secondary dose-response HTS, Cell Titer Glo; format: cell-based, human; conditions: Homo sapiens; secondary high-throughput screen; MV4-11; read-out: average effective concentration, MV4-11
[22] = secondary high-throughput screen
[23] = secondary high-throughput screen, CMS

SMILES | EC50 (CHRF288-11 [1]) [nM] | EC50 (CMS [2]) [nM] | EC50 (M07e [3]; M07e) [nM] | EC50 (ML2) [nM] | EC50 (U937 [4]) [nM] | EC50 (MOLM-13 [5]) [nM] | EC50 (MV4-11 [6]) [nM] | EC50 (CMK [7]) [nM] | EC50 (CMK [8]; [22]) [nM] | EC50 (CMS [2]; [23]) [nM] | further results
C=C1CC[C@@H]2[C@](C)(CO)[C@H](O)CC[C@@]2(C)[C@@H]1C/C=C1/C(=O)OC[C@H]1O [ANDROGRAPHOLIDE] | 8500 | 5800 | 10000 | 3800 | 1700 | > 10000 | > 10000 | > 10000 | – | – | –
O=C(Nc1c[nH]nc1-c1nc2ccc(CN3CCOCC3)cc2[nH]1)NC1CC1 [AT9283] | – | – | 90 | 6600 | 6100 | > 10000 | > 10000 | – | 190 | 190 | EC50 (CHRF288-11 [9]): > 10000 nM
Nc1cc(F)ccc1NC(=O)c1ccc(CNC(=O)/C=C/c2cccnc2)cc1 [CHIDAMIDE] | – | 9900 | 1500 | 8700 | – | > 10000 | > 10000 | – | – | – | EC50 (CMK [8]): 250 nM; EC50 (CHRF288-11 [9]): > 10000 nM; EC50 (U937 [10]): > 10000 nM
CC(C)C[C@H](NC(=O)[C@H](CCc1ccccc1)NC(=O)CN1CCOCC1)C(=O)N[C@@H](Cc1ccccc1)C(=O)N[C@@H](CC(C)C)C(=O)[C@@]1(C)CO1 [Carfilzomib] | – | – | – | – | – | – | – | – | – | – | EC50 (ML-2 [11]): 2.9 nM
Nc1nc(Cl)nc2c1ncn2[C@@H]1O[C@H](CO)[C@@H](O)[C@@H]1F [Clofarabine, clofarabine] | – | – | – | – | – | – | – | – | – | – | EC50 (ML-2 [11]): 125 nM
O=C(/C=C/c1ccc(CN(CCO)CCc2c[nH]c3ccccc23)cc1)NO [DACINOSTAT] | 1 | – | 1 | 1 | 1 | > 10000 | > 10000 | – | 1 | 1 | CHRF288-11 %inh (CHRF288-11 [12]): 161.9%; CMK %inh (CMK [13]): 120.3%; CMS %inh (CMS [14]): 111%; M07e %inh (M07e [15]): 149.6%; ML-2 %inh (ML-2 [16]): 65.79%; MOLM-13 %inh (MOLM-13 [17]): 102.9%; MV4-11 %inh (MV4-11 [18]): 78.77%; U937 %inh (U937 [19]): 87.23%
COc1cccc2c1C(=O)c1c(O)c3c(c(O)c1C2=O)C[C@@](O)(C(=O)CO)C[C@@H]3O[C@H]1C[C@H](N)[C@H](O)[C@H](C)O1 [DOXORUBICIN] | 130 | – | 230 | 440 | 140 | – | – | > 10000 | – | 740 | EC50 (MOLM-13 [20]): 36 nM; EC50 (MV4-11 [21]): 51 nM; EC50 (CHRF288-11 [9]): 134 nM
CC(=O)O[C@@]12CO[C@@H]1C[C@H](O)[C@@]1(C)C(=O)[C@H](O)C3=C(C)[C@@H](OC(=O)[C@H](O)[C@@H](NC(=O)OC(C)(C)C)c4ccccc4)C[C@@](O)([C@@H](OC(=O)c4ccccc4)[C@H]21)C3(C)C [Docetaxel, docetaxel] | – | – | – | – | – | – | – | – | – | – | EC50 (ML-2 [11]): > 10000 nM
CCOc1ccccc1-n1c(C(C)N2CCN(C(=O)COc3ccc(Cl)cc3)CC2)nc2ccccc2c1=O (stereo not drawn) [ERASTIN] | 190 | – | 7500 | 540 | – | > 10000 | > 10000 | > 10000 | – | 9500 | EC50 (U937 [10]): > 10000 nM
COc1cc([C@@H]2c3cc4c(cc3[C@@H](O[C@@H]3O[C@@H]5CO[C@@H](C)O[C@H]5[C@H](O)[C@H]3O)[C@H]3COC(=O)[C@H]23)OCO4)cc(OC)c1O [ETOPOSIDE] | 3600 | – | 1700 | 710 | 4300 | – | – | > 10000 | – | > 10000 | EC50 (MOLM-13 [20]): 2100 nM; EC50 (MV4-11 [21]): 670 nM
Cc1cc(Nc2cc(CN3CCOCC3)c3nc(C)c(Cc4ccc(Cl)cc4F)n3n2)n[nH]1 [GANDOTINIB] | 69 | 360 | 3000 | 9300 | 940 | > 10000 | > 10000 | > 10000 | – | – | –
CCN(CC)Cc1ccc2cc(COC(=O)Nc3ccc(C(=O)NO)cc3)ccc2c1 [GIVINOSTAT] | 61 | – | 31 | 70 | 55 | > 10000 | > 10000 | – | 3.7 | 86 | –
Oc1ccc(C2=Cc3ccc(O)cc3OC2)cc1 [IDRONOXIL] | 180 | – | – | 130 | 1900 | > 10000 | > 10000 | – | 88 | 440 | EC50 (M07e [3]; […]): 1300 nM
NS(=O)(=O)OC[C@@H]1C[C@@H](n2ccc3c(N[C@H]4CCc5ccccc54)ncnc32)C[C@@H]1O [MLN 4924] | 18 | 100 | 140 | 1 | 1 | > 10000 | > 10000 | – | – | – | EC50 (CMK [8]): 1 nM
Nc1ccccc1NC(=O)c1ccc(CNc2nccc(-c3cccnc3)n2)cc1 [MOCETINOSTAT] | 170 | – | 140 | 410 | 1100 | > 10000 | > 10000 | – | 39 | 120 | –
C=C1C(=O)O[C@H]2[C@H]1CC/C(C)=C/CC[C@@]1(C)O[C@@H]21 [PARTHENOLIDE] | 1600 | 1200 | 10000 | 920 | 2100 | > 10000 | > 10000 | – | – | – | EC50 (CMK [8]): 2100 nM
CCCCc1nc2cc(/C=C/C(=O)NO)ccc2n1CCN(CC)CC [PRACINOSTAT] | 250 | 140 | 130 | 330 | 220 | > 10000 | > 10000 | – | – | – | EC50 (CMK [8]): 70 nM
CN1CCC(CNc2ccc3ncc(-c4cccc(OC(F)(F)F)c4)n3n2)CC1 [SGI-1776] | > 10000 | > 10000 | > 10000 | > 10000 | 10000 | – | – | > 10000 | – | – | EC50 (MOLM-13 [20]): 1600 nM; EC50 (MV4-11 [21]): 990 nM
COc1cc(C)c2c(Oc3cccc(C(F)(F)F)c3)c(OC)cc(NC(C)CCCN)c2n1 (stereo not drawn) [TAFENOQUINE] | > 10000 | > 10000 | > 10000 | > 10000 | > 10000 | > 10000 | > 10000 | > 10000 | – | – | CHRF288-11 %inh (CHRF288-11 [12]): 134.8%; CMK %inh (CMK [13]): 107.9%; CMS %inh (CMS [14]): 39.64%; M07e %inh (M07e [15]): 38.9%; ML-2 %inh (ML-2 [16]): 62.38%; MOLM-13 %inh (MOLM-13 [17]): 98.6%; MV4-11 %inh (MV4-11 [18]): 34.4%; U937 %inh (U937 [19]): 46.41%
O=C1NC(=O)[C@@H](c2cn3c4c(cccc24)CCC3)[C@@H]1c1c[nH]c2ccccc12 [TIVANTINIB] | 3600 | – | 770 | 55 | 61 | > 10000 | > 10000 | – | 75 | 1500 | –
